Values belong to the molecule of their own block, whether it stands above or below them.
Experiments:
[1] = biological target: human, recombinant full-length HDAC1 (Homo sapiens (Human), UniProt Q13547); experiment: HDAC inhibition assay, HDAC1; format: biochemical; conditions: HDAC1 and HDAC6, not selective
[2] = test system: B16 murine melanoma cells; experiment: B16 melanoma cell growth inhibition assay (MTS); format: cell-based
Protocol: The following day, media was changed to that containing various concentrations of HDACi or matched DMSO vehicle concentrations diluted in complete medium done in triplicate. […] Briefly, 20 μL of reagent were added per well and incubated at 37° C. for 3 hours.

[3] = test system: acetyl-α-tubulin in B16 melanoma cells; experiment: Tubulin acetylation Western blot assay; format: cell-based, murine; conditions: 24 h, low nanomolar treatment
Protocol: (§1) […]. B16 melanoma cells were plated at 10^5 cells/well in 12 well plates and allowed to adhere overnight. A 50 mM stock of compound was then added by serial dilutions in complete medium to the indicated concentrations. Cells were incubated for 24 h under humidified conditions (37° C., 5% CO2). Wells were then washed with cold PBS, and cells were lysed in a buffer containing 10 mM Tris-HCl pH 8.0, 10% SDS, […], 100 mM DTT, and 1× protease inhibitor (Roche). Cells were lysed for 30 min on ice and then sonicated for 8 min (8 cycles of 30 s on/30 s rest). Cells were then boiled for 10 min with 6× gel loading buffer and resolved on 4-15% gradient gels and subsequently transferred onto nitrocellulose membranes. Membranes were blocked with 5% milk in PBS-T and detection of specific antigens using antibodies against acetyl-H3 and H3 (Cell Signaling), and acetyl-α-tubulin and α-tubulin (Sigma). Bands were detected by scanning blots with LI-COR Odyssey imaging system using both 700 and 800 channels.

[4] = test system: acetyl-H3 in B16 melanoma cells; experiment: Histone acetylation Western blot assay; format: cell-based, murine; conditions: 24 h
Protocol: as §1

[5] = test system: antigen-specific T-cell responses; experiment: In vivo antigen-specific T-cell responses to vaccination; set-up: species or system mice; conditions: in vivo treatment
Text: Tubastatin A-treated macrophages are better activators of […] and restore the responsiveness of anergic T-cells in vitro. […] Mechanistically, Tubastatin-A disrupt […] pathway and tip the balance towards immunogenic rather than tolerogenic macrophages.

[6] = test system: STAT3 in APCs; experiment: STAT3 phosphorylation and recruitment to IL-10 gene promotor in APCs; format: cell-based
Text: FIG. 26 is a flow chart depicting the experimental design of the in vitro antigen-presenting studies.
Human MCL cells display an enhanced expression of HDAC6. Disruption of HDAC6 in malignant B-cells inhibits their proliferation and is associated with induction of apoptosis. Pharmacologic or genetic disruption of HDAC6 in MCL cells augment their antigen-presenting capabilities leading to better T-cell activation and restoration of function of anergic Tcells in vitro. […] Disclosed herein is the rationale to use HDAC6 specific inhibitor(s) alone or in combination with STAT3 inhibitors in MCL.

[7] = test system: JAK2/STAT3 in B16 murine melanoma cells; experiment: JAK2/STAT3 phosphorylation in B16 melanoma in vivo

Sequence of human, recombinant full-length HDAC1 (Q13547 whole entry): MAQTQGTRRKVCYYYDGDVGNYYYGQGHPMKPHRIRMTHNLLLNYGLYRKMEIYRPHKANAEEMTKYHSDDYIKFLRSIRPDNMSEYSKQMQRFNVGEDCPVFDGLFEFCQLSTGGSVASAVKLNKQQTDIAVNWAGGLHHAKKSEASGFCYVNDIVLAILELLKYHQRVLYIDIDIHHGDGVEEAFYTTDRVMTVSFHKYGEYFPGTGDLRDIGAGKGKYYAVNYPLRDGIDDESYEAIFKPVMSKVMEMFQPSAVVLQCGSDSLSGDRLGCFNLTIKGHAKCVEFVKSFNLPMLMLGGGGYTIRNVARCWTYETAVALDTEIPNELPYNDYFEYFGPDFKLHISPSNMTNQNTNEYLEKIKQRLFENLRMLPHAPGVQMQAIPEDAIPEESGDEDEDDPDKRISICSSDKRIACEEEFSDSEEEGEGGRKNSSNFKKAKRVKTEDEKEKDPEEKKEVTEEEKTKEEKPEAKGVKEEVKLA

HDAC inhibitory activity (in words) [1]: submicromolar HDAC inhibitory activity
Compound: COc1ccccc1NC(=O)NCc1ccc(C(=O)NO)cc1 [Compound 1]

Compound: COc1ccccc1NC(=O)N(CCCO)Cc1ccc(C(=O)NO)cc1 [Compound 5b, N-hydroxy-4-((1-(3-hydroxypropyl)-3-(2-methoxyphenyl)ureido)methyl)-benzamide]
growth inhibition of B16 melanoma cell line (in words) [2]: performed very poorly in the cellular assay

Compound: CCCCN(Cc1ccc(C(=O)NO)cc1)C(=O)Nc1ccccc1 [Compound 5g, 4-((1-butyl-3-phenylureido)methyl)-N-hydroxybenzamide]
acetyl α-tubulin levels [3]: dose-dependant increase of acetyl α-tubulin levels
histone H3 acetylation ([4]; 1 and 10 μM): observable increase in histone H3 acetylation
histone H3 acetylation ([4]; low nanomolar treatment): without a concamanent elevation of histone H3 acetylation

Compound: O=C(NO)c1ccc(CN(CCc2ccccc2)C(=O)Nc2ccccc2)cc1 [Compound 5h, N-hydroxy-4-((1-phenethyl-3-phenylureido)methyl)benzamide]
growth inhibition of B16 melanoma cell line (in words) [2]: capable of inhibiting the growth of B16 melanoma cell line

Compound: CN1CCc2c(c3ccccc3n2Cc2ccc(C(=O)NO)cc2)C1 [Tubastatin A]
antigen-specific T-cell responses to vaccination [5]: enhances antigen-specific T-cell responses to vaccination
STAT3 phosphorylation and recruitment to the IL-10 gene promotor [6]: decreased STAT3 phosphorylation and recruitment
JAK2/STAT3 phosphorylation [7]: inhibits JAK2/STAT3 phosphorylation

— patent US9956192B2, “Selective histone deactylase 6 inhibitors” (H. Lee Moffitt Cancer Center and Research Institute, Inc., priority 2012, dated 2018)
